Some test systems named below: A498 renal; A549 NSCLC; CCRF-CEM leukemia; EKVX NSCLC; HCC-2998 colon; KM12 colon; NCI-H460 lung; NCI/ADR-RES ovarian; RPMI-8226 leukemia; SF-295 CNS; SF-539 CNS; SK-MEL-2 melanoma; SK-OV-3 ovarian; SN12C renal; SR leukemia; U251 CNS; NCI-H226 lung.
What all share (test): NCI-60 cell line screen, 48 h

The source of these data is PubChem BioAssay (NCI).

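Cultured in 96-well plates, cells were exposed to test compound for 48 hours across five concentrations. GI50 is the concentration that inhibits growth by half. TGI: concentration producing complete growth inhibition.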

On to `CCOC(=O)NC`, for which the TGI in the assay with A498 renal, in the assay on A549 NSCLC, with CCRF-CEM leukemia, with EKVX NSCLC, with HCC-2998 colon and in the assay with KM12 colon was greater than 100 µM each time. Moreover, the TGI with NCI-H460 lung, with NCI/ADR-RES ovarian, in the assay on RPMI-8226 leukemia, in the assay with SF-295 CNS, with SF-539 CNS and in the assay on SK-MEL-2 melanoma was greater than 100 µM each time. In addition, the TGI in the assay on SK-OV-3 ovarian, in the assay on SN12C renal, in the assay with SR leukemia and in the assay with U251 CNS was greater than 100 µM each time.

`C/C=C/C(C#N)(Cc1ccccc1)OP1(=O)OC(c2ccccc2)C(C)N1C` (stereo not given): the TGI in the assay on A498 renal was greater than 100 µM; in the assay with A549 NSCLC, greater than 100 µM; in the assay with CCRF-CEM leukemia, 41.2 µM; with EKVX NSCLC it was greater than 100 µM; with HCC-2998 colon it was greater than 100 µM; in the assay with KM12 colon, greater than 100 µM. Further, the TGI in the assay on NCI-H460 lung, in the assay on NCI/ADR-RES ovarian, in the assay on RPMI-8226 leukemia, with SF-295 CNS, in the assay on SF-539 CNS and with SK-MEL-2 melanoma was greater than 100 µM throughout. Also, the TGI with SK-OV-3 ovarian, in the assay with SN12C renal, in the assay with SR leukemia and in the assay with U251 CNS was greater than 100 µM throughout.

As to `Cc1nc(-c2cc3c(ccc4ccccc43)oc2=O)cc2c1c(=O)oc1ccc3ccccc3c12`, the TGI with A498 renal, in the assay with A549 NSCLC, with CCRF-CEM leukemia, with EKVX NSCLC, in the assay on HCC-2998 colon and in the assay on KM12 colon was greater than 100 µM each time. Besides, the TGI in the assay with NCI-H460 lung, with NCI/ADR-RES ovarian, in the assay with SF-295 CNS, in the assay with SF-539 CNS, with SK-MEL-2 melanoma and in the assay with SK-OV-3 ovarian was greater than 100 µM in each case. For the same molecule, the TGI in the assay with SR leukemia and in the assay on U251 CNS was greater than 100 µM in each case.

`O=C1C[C@@H](Sc2ccccc2)C2(OCCO2)[C@H]2ON3CCC[C@@H]3[C@@H]12`: the TGI in the assay on A498 renal stood at 30.5 µM; with A549 NSCLC, 26.3 µM; in the assay on CCRF-CEM leukemia, 5.72 µM; in the assay with HCC-2998 colon, 20.8 µM; with KM12 colon it was 18.4 µM; in the assay on NCI-H226 lung, 34.5 µM. Besides, the TGI in the assay with NCI-H460 lung was determined as 18.7 µM; in the assay with NCI/ADR-RES ovarian it was 31.2 µM; in the assay on RPMI-8226 leukemia, 8.94 µM; in the assay on SF-295 CNS, 26.7 µM; in the assay with SF-539 CNS, 19.8 µM; in the assay on SK-MEL-2 melanoma, 13.3 µM. For the same molecule, the TGI with SK-OV-3 ovarian came to 27.9 µM; in the assay on SN12C renal, 7.52 µM; with SR leukemia it was 10.4 µM; in the assay on U251 CNS it was 18 µM.

For `O=c1cc(O)c2ccccc2o1`, the TGI with A498 renal, with A549 NSCLC, in the assay on CCRF-CEM leukemia, in the assay with EKVX NSCLC, with HCC-2998 colon and with KM12 colon was greater than 100 µM throughout. The TGI in the assay with NCI-H226 lung, in the assay with NCI-H460 lung, in the assay on NCI/ADR-RES ovarian, in the assay with RPMI-8226 leukemia, in the assay on SF-295 CNS and in the assay on SF-539 CNS was greater than 100 µM throughout. In addition, the TGI with SN12C renal, with SR leukemia and with U251 CNS was greater than 100 µM each time.

`COc1ccc(OC)c(C#Cc2ccc(OC)c(C(=O)NCCc3ccc(F)cc3)c2)c1`: the TGI in the assay on A498 renal was greater than 100 µM; in the assay on A549 NSCLC, greater than 100 µM; in the assay with CCRF-CEM leukemia, greater than 100 µM; in the assay with EKVX NSCLC, greater than 100 µM; in the assay with HCC-2998 colon, 7.73 µM; with KM12 colon, greater than 100 µM. Moreover, the TGI with NCI-H460 lung, in the assay with NCI/ADR-RES ovarian, with RPMI-8226 leukemia, in the assay with SF-295 CNS, with SK-MEL-2 melanoma and in the assay with SN12C renal was greater than 100 µM in each case. In addition, the TGI with SR leukemia and in the assay with U251 CNS was greater than 100 µM throughout. The GI50 with CCRF-CEM leukemia is 4.72 µM; in the assay with SN12C renal it was greater than 100 µM.

Take `Cc1cc(S(=O)(=O)NC2=NC(c3ccccc3)c3ccccc3N2)c(S)cc1Cl` (stereo not given): the TGI in the assay with A498 renal, with A549 NSCLC, in the assay with CCRF-CEM leukemia, with EKVX NSCLC, with HCC-2998 colon and with KM12 colon was greater than 100 µM throughout. In addition, the TGI with NCI-H226 lung, in the assay with NCI-H460 lung, in the assay with NCI/ADR-RES ovarian, in the assay on RPMI-8226 leukemia, with SF-295 CNS and with SF-539 CNS was greater than 100 µM each time. The TGI in the assay with SK-OV-3 ovarian is greater than 100 µM; in the assay on SN12C renal, greater than 100 µM; with SR leukemia it was 58.3 µM; in the assay on U251 CNS, greater than 100 µM.

`CN(C)c1nc(=NCc2cccs2)ss1`: the TGI in the assay on A498 renal is greater than 10 µM; in the assay on A549 NSCLC, greater than 10 µM; in the assay on CCRF-CEM leukemia it was 1.83 µM; in the assay on EKVX NSCLC, greater than 10 µM; in the assay on HCC-2998 colon, greater than 10 µM; with KM12 colon, greater than 10 µM. For the same molecule, the TGI in the assay with NCI-H226 lung, in the assay on NCI-H460 lung, in the assay with NCI/ADR-RES ovarian, in the assay on RPMI-8226 leukemia, in the assay on SF-295 CNS and with SF-539 CNS was greater than 10 µM throughout. In addition, the TGI in the assay on SK-OV-3 ovarian was greater than 10 µM; with SN12C renal, greater than 10 µM; in the assay with SR leukemia, greater than 4.9 µM; with U251 CNS it was greater than 10 µM.
